Patent US20250388623A1, “PEPTIDE INHIBITOR AND USE THEREOF” (CHENGDU BRILLIANT INSPIRATION BIOTHERAPEUTICS CO., LTD, priority 2022, published 2025)
Bridge positions count the residues as written; N and C are the ends. Peptide text beside a SMILES is read from it.

Experiments:
[1] = tested on: TSP-1-dependent TGF-β activation; test: TSP-1-dependent TGF-β activation in PMA-differentiated THP-1 cells with 293-TGFβ Res reporter cells; type: cell-based; details: 100 μM polypeptide, 24 h; ratio to negative control group (1.00)
Description: In this Example, the inhibitory effects of the polypeptides on TSP-1-dependent TGF-β activation were detected using a model based on a high TSP-1 expressing cell. In the assay, THP-1 cells (American Typical Culture Collection, ATCC, TIB-20) were induced by phorbol ester (Phorbol 12-myristate 13-acetate, PMA) (Sigma, Catalog No. P1585) and differentiated into macrophage-like cells with distinct macrophage expression profiles.
The experiment was performed as follows: THP-1 cells were inoculated in a 96-well plate, and treated with 300 nM PMA for differentiation and adherence to form macrophage-like cells. 100 μM polypeptide was added (For the negative control group, an equal volume of PBS (the solvent for the polypeptide) was added, while the positive control group received an equal concentration of the polypeptide shown in SEQ ID NO: 50.) The cells were treated for 24 hours, and then a 293 reporter cell strain, 293-TGFβ Res cell strain (novoprotein, Catalog No. XCC03-1), was added for detecting TGF-β activity, and co-cultivated for 24 hours. Bio-Lite Luciferase Assay lysate comprising fluorescent substrate (Vazyme, Catalog No. DD1201-01) was added, and the fluorescent intensity was detected using a multifunctional microplate reader (TECAN, model Infinite 200 Pro). The inhibitory effect of the polypeptide on TGF-β activation was assessed by calculating the ratio of the fluorescence signal from the polypeptide-treated groups to that of the negative control group.

[2] = tested on: rat fibrotic disease model (bleomycin); test: Hydroxyproline (HYP) content / collagen deposition in lung, bleomycin rat fibrosis model; type: in vivo; details: 2 mg/kg intratracheal twice weekly x4 from Day 1, Day 15, model group = 100.00
Description: This Example was to evaluate the inhibitory effect of polypeptides on collagen deposition at the pathological sites of pulmonary fibrosis. 6- to 8-week-old male SD rats weighing 200 to 220 g were used as subjects for the study. The experimental animals were randomized into groups, 8 animals in each group. On the day of modeling (Day 1), a single dose of 1.8 USP/kg of bleomycin solution was administered via the tracheal route to the model group and each peptide-treated group to induce the model. Starting on Day 1, each peptide-treated group received intratracheal administration of the peptide at a dosage of 2 mg/kg, with a dosing frequency of twice a week, for a total of four administrations. The model group received an equal volume of solvent (saline) as a control, with the volume being 100 μL. The procedure followed that described in Example 4. Day 15 was set as the experimental endpoint for assessing the degree of fibrosis in the model.
On Day 15, the animals were dissected to collect lung tissues. After grinding the rat lung tissues in liquid nitrogen, total hydroxyproline (HYP) was extracted from the tissues using acid hydrolysis, and the HYP content was determined by chloramine T oxidation colorimetry. 1 mL of 6N HCl was added per 100 mg of tissue and thoroughly mixed, followed by hydrolysis at 121° C. for 6 hours. The hydrolysate was centrifuged, and the resulting supernatant was used for HYP content determination. To a 96-well plate, the hydrolysate supernatant, or a gradient of HYP standard solutions (Sigma, Catalog No. V900395-25G) at different concentrations, was added in 10 μL per well, and dried in an oven at 65° C. 100 μL per well of 1.4% chloramine T oxidizing solution (Sigma, Catalog No. 23270-50G) was added, and incubated at room temperature for 15 minutes. 100 μL per well of Ehrlich's color development solution (Solarbio, Catalog No. G1290) was added and incubated at 65° C. for 30 minutes. The absorbance of each sample well was measured at 560 nm (OD560) using a multifunctional microplate reader (TECAN, model Infinite 200 Pro). The total HYP content in the lung tissue from each experimental group was calculated to determine the reduction percentage of HYP content in the peptide-treated group relative to the model group, and the inhibitory effect of the peptide molecule on collagen deposition at the fibrotic site was assessed.

Compound: Ac-TQDAEDNTASH-NH2 [SEQ ID NO: 33, Ac-Thr-Gln-Asp-Ala-Glu-Asp-Asn-Thr-Ala-Ser-His-NH2]
- Mean (relative fluorescence intensity) [1]: 0.67
- HYP content in lung tissue relative to model group, Mean (%) [2]: 80.28%

Compound: C[C@@H]1NC(=O)[C@H](CC(=O)O)NC(=O)[C@H](CCC(N)=O)NC(=O)[C@H]([C@@H](C)O)NC(=O)[C@H](CC(N)=O)NC(=O)[C@H](CC(=O)O)NC(=O)[C@H](CCC(=O)O)NC1=O [SEQ ID NO: 40, cyclo[Thr-Gln-Asp-Ala-Glu-Asp-Asn]] (cyclo(AEDNTQD))
- Mean (relative fluorescence intensity) [1]: 0.77
- HYP content in lung tissue relative to model group, Mean (%) [2]: 72.93%

Compound: Ac-TQDAEDN-NH2 [SEQ ID NO: 06, Ac-Thr-Gln-Asp-Ala-Glu-Asp-Asn-NH2]
- Mean (relative fluorescence intensity) [1]: 0.65
- HYP content in lung tissue relative to model group, Mean (%) [2]: 80.30%

Compound: CC(=O)N[C@H](C(=O)N[C@H]1CSSC[C@@H](C(=O)O)NC(=O)[C@H](CC(N)=O)NC(=O)[C@H](CC(=O)O)NC(=O)[C@H](CCC(=O)O)NC(=O)[C@H](C)NC(=O)[C@H](CC(=O)O)NC1=O)[C@@H](C)O [SEQ ID NO: 43, Ac-Thr-cyclo[Cys-Asp-Ala-Glu-Asp-Asn-Cys]] (Ac-TCDAEDNC-OH; disulfide 2-8)
- Mean (relative fluorescence intensity) [1]: 0.65
- HYP content in lung tissue relative to model group, Mean (%) [2]: 72.91%

Compound: Ac-TQDAEDPTA-NH2 [SEQ ID NO: 22, Ac-Thr-Gln-Asp-Ala-Glu-Asp-Pro-Thr-Ala-NH2]
- Mean (relative fluorescence intensity) [1]: 0.74
- HYP content in lung tissue relative to model group, Mean (%) [2]: 68.30%

Compound: Ac-TQDAEDPTAS-NH2 [SEQ ID NO: 25, Ac-Thr-Gln-Asp-Ala-Glu-Asp-Pro-Thr-Ala-Ser-NH2]
- Mean (relative fluorescence intensity) [1]: 0.73
- HYP content in lung tissue relative to model group, Mean (%) [2]: 81.45%

Compound: C[C@@H]1NC(=O)[C@H]([C@@H](C)O)NC(=O)[C@H](CC(N)=O)NC(=O)[C@H](CC(=O)O)NC(=O)[C@H](CCC(=O)O)NC(=O)[C@@H]2CCCN2C(=O)[C@H](CC(=O)O)NC(=O)[C@H](CCC(N)=O)NC(=O)[C@H]([C@@H](C)O)NC(=O)[C@H](CO)NC1=O [SEQ ID NO: 46, cyclo[Thr-Gln-Asp-Pro-Glu-Asp-Asn-Thr-Ala-Ser]] (cyclo(ASTQDPEDNT))
- Mean (relative fluorescence intensity) [1]: 0.69
- HYP content in lung tissue relative to model group, Mean (%) [2]: 66.46%

Compound: Ac-TQDPEDNTAS-NH2 [SEQ ID NO: 26, Ac-Thr-Gln-Asp-Pro-Glu-Asp-Asn-Thr-Ala-Ser-NH2]
- Mean (relative fluorescence intensity) [1]: 0.68
- HYP content in lung tissue relative to model group, Mean (%) [2]: 78.75%

Compound: CC(=O)N[C@H](C(=O)N[C@H]1CSSC[C@@H](C(N)=O)NC(=O)[C@H](CC(N)=O)NC(=O)[C@H](CC(=O)O)NC(=O)[C@H](CCC(=O)O)NC(=O)[C@H](C)NC(=O)[C@H](CC(=O)O)NC1=O)[C@@H](C)O [SEQ ID NO: 44, Ac-Thr-cyclo[Cys-Asp-Ala-Glu-Asp-Asn-Cys]-NH2] (Ac-TCDAEDNC-NH2; disulfide 2-8)
- Mean (relative fluorescence intensity) [1]: 0.43
- HYP content in lung tissue relative to model group, Mean (%) [2]: 65.55%
